Experimental data reported in US9596849B2, “Composition containing sorbitan monocaprylate and alcohol” (Clariant International Ltd., priority 2009, dated 2017).

Tests used:
Staphylococcus aureus = experiment: Minimum inhibitory concentration and synergistic effect (Kull) against Staphylococcus aureus; type: cell-based; conditions: for QA (minimum inhibitory concentration of the pure substance A): pure sorbitan monocaprylate
From the text: (§1) Calculation of the synergistic effect according to the formula Qa/QA+Qb/QB=SE (synergistic effect, according to F. C. Kull et al., Applied Microbiology 1961, 9, 538), where Qa=minimum inhibitory concentration of the compound A in % in the mixture used, QA=minimum inhibitory concentration of the pure substance A, Qb=minimum inhibitory concentration of the compound B in % in the mixture used, and QB=minimum inhibitory concentration of the pure substance B.
(§2) Evaluation of the synergistic effect: where an SE>1 is obtained, there is an antagonistic effect; if SE=1, then the compounds are neutral in their behavior toward one another, and if SE<1, there is a synergistic effect.
(§3) Mixtures of sorbitan monocaprylate and phenoxyethanol or benzyl alcohol, in accordance with Examples 1) and 2), were investigated. The results with respect to synergism are set out in Tables A and B. “MIC blend” here is the minimum inhibitory concentration of the respective blend.

Aspergillus brasiliensis = experiment: Minimum inhibitory concentration and synergistic effect (Kull) against Aspergillus brasiliensis; type: cell-based; conditions: for QA (minimum inhibitory concentration of the pure substance A): pure sorbitan monocaprylate
From the text: as §1, §2, §3

[1] = Table A, sorbitan monocaprylate in 50:50 blend with phenoxyethanol
[2] = Table B, sorbitan monocaprylate in 50:50 blend with benzyl alcohol

## sorbitan monocaprylate
Staphylococcus aureus; Table A
  QA (minimum inhibitory concentration of the pure substance A): 0.25%
Staphylococcus aureus; [1]
  Qa (minimum inhibitory concentration of compound A in the mixture used): 0.0315%
Staphylococcus aureus; Table B
  QA (minimum inhibitory concentration of the pure substance A): 0.25%
Staphylococcus aureus; [2]
  Qa (minimum inhibitory concentration of compound A in the mixture used): 0.016%
Aspergillus brasiliensis; Table A
  QA (minimum inhibitory concentration of the pure substance A): 0.016%
Aspergillus brasiliensis; [1]
  Qa (minimum inhibitory concentration of compound A in the mixture used): 0.004%
Aspergillus brasiliensis; Table B
  QA (minimum inhibitory concentration of the pure substance A): 0.016%
Aspergillus brasiliensis; [2]
  Qa (minimum inhibitory concentration of compound A in the mixture used): 0.004%
